Our source for the IC50 and Ki values is ChEMBL document CHEMBL1909046, “DrugMatrix in vitro pharmacology data”.

The target in assay [1] is T1, Thromboxane-A synthase (Homo sapiens, UniProt P24557).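 Also: enzyme inhibition assay with PGH2 supplied as substrate; in other assays of this panel Not Active means under 50% inhibition at 10 µM.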
T1 sequence (P24557 whole entry): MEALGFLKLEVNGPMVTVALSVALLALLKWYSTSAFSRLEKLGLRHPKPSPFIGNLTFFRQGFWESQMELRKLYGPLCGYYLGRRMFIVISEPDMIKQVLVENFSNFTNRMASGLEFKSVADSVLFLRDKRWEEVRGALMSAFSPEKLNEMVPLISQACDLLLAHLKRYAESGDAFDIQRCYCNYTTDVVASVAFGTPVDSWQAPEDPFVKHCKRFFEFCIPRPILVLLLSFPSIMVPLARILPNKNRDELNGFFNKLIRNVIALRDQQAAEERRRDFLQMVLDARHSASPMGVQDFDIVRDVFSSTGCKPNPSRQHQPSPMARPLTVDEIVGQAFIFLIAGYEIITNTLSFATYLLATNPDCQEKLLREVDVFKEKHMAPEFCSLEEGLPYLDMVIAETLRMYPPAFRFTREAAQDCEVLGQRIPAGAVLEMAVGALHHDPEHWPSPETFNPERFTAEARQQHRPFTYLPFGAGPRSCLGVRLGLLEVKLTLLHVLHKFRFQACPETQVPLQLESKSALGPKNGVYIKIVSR
As to the kind of experiment: biochemical. The format is tissue-based, Platelet.

A short description of assay [2]: DRUGMATRIX: Purinergic P2X radioligand binding (ligand: [3H] alpha, beta-Methylene-ATP). The format is cell membranes, Oryctolagus cuniculus, New Zealand albino, Urinary bladder, Membrane. As to conditions: Not Active = under 50% inhibition at 10 µM.
The nature of assay [3]: DRUGMATRIX: Phosphodiesterase PDE3 enzyme inhibition (substrate: [3H]cAMP + cAMP). The format is tissue-based, Homo sapiens. As to conditions: platelet; Not Active = under 50% inhibition at 10 µM.
The target in assay [4] is Adenosine receptor A2a (Homo sapiens, UniProt P29274). As to the kind of experiment: DRUGMATRIX: Adenosine A2A radioligand binding (ligand: […]). The format is cell membranes, Membrane. Particulars: hek293; Not Active = under 50% inhibition at 10 µM.
For assay [5], the target named is Beta-2 adrenergic receptor (Homo sapiens, UniProt P07550). The assay can be described thus: DRUGMATRIX: Adrenergic beta2 radioligand binding (ligand: [3H] CGP-12177). The format is cell membranes, Membrane. Particulars: cho; Not Active = under 50% inhibition at 10 µM.
Assay [6] deals with T2, Alpha-2A adrenergic receptor (Homo sapiens, UniProt P08913).
T2 sequence (P08913 whole entry): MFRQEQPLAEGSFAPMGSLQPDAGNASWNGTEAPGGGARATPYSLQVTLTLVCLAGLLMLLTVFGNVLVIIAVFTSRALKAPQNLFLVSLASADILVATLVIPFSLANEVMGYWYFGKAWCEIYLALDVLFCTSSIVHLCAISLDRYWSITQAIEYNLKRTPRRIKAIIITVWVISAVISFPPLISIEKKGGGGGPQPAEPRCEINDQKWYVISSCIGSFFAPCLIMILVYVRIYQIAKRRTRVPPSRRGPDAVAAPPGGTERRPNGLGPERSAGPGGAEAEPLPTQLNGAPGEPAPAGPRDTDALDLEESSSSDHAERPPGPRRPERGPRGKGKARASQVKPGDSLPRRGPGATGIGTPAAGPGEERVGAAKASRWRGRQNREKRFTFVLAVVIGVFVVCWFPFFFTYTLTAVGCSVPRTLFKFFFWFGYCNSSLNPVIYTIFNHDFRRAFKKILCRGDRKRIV
The format is cell membranes, Sf9, Membrane.

Assay [7] addresses T3, Alpha-1B adrenergic receptor (Rattus norvegicus, UniProt P15823).
T3 sequence (P15823 whole entry): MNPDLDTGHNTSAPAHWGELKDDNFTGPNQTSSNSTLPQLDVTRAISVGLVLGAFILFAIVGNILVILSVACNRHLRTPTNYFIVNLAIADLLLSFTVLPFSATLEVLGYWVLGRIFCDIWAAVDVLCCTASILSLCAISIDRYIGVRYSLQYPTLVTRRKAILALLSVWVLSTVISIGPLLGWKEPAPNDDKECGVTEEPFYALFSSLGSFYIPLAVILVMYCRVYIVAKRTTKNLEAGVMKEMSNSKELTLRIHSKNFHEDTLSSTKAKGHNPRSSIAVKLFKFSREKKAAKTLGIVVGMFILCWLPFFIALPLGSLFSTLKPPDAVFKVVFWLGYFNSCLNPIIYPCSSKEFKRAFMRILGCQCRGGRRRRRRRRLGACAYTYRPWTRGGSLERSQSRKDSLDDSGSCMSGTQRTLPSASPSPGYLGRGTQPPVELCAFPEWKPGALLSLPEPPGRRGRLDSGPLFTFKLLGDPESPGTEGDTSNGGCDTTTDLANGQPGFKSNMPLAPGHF
The assay can be described thus: DRUGMATRIX: Alpha-1B adrenergic receptor radioligand binding (ligand: prazosin). Particulars: Not Active = under 50% inhibition at 10 µM. It is filed as cell membranes, Wistar, Liver, Membrane.

Beta-2 adrenergic receptor, sequence (P07550 whole entry): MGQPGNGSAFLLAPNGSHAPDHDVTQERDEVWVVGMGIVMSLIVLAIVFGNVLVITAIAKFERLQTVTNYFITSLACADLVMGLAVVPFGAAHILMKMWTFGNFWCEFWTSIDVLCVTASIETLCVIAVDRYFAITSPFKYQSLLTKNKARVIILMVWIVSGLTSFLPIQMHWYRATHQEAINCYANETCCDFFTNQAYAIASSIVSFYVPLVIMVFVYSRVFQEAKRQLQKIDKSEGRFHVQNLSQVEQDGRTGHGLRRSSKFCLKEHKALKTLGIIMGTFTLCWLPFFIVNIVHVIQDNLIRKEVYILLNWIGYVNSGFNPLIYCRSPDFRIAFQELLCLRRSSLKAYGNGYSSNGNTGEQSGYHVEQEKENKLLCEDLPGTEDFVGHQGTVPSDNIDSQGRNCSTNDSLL
Adenosine receptor A2a, sequence (P29274 whole entry): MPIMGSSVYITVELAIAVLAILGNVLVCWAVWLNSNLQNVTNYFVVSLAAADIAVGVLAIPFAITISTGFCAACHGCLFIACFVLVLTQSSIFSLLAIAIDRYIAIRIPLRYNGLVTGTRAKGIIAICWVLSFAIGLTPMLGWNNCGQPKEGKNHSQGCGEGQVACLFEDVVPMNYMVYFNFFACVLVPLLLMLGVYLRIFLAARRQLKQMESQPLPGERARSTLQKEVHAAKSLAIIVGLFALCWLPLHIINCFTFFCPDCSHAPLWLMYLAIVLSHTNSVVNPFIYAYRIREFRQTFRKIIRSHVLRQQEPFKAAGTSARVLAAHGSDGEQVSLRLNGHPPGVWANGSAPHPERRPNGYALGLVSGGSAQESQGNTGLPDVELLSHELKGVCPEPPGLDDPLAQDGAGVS

With `NC(=O)N1c2ccccc2CCc2ccccc21`, the IC50 result in assay [1] (platelet), in assay [2], in assay [3], in assay [4], in assay [5] and in assay [6] (sf9) was “Not Active” each time. In assay [7], the IC50 – broadly, the concentration needed to halve the response being measured – is “Not Active”. In addition, the Ki entry in assay [2] and in assay [3] was “Not Active” in each case.
Consider `CC(C)C(Br)C(=O)NC(N)=O` (stereo unspecified) [BROMISOVALUM], for which the IC50 entry in assay [1] (platelet), in assay [2], in assay [3], in assay [4], in assay [5] and in assay [6] (sf9) was “Not Active” in each case. Further, the IC50 entry in assay [7] is on record as “Not Active”. Besides, the Ki entry in assay [2] and in assay [3] was “Not Active” in each case.
Take `COc1ccc(C[C@H]2NC[C@H](O)[C@H]2OC(C)=O)cc1` [ANISOMYCIN]: the IC50 result in assay [1] (platelet), in assay [2], in assay [3], in assay [4], in assay [5] and in assay [6] (sf9) was “Not Active” throughout. Moreover, the IC50 entry in assay [7] is “Not Active”. Further, the inhibition constant (Ki) result in assay [1] (platelet), in assay [2], in assay [3], in assay [4], in assay [5] and in assay [6] (sf9) was “Not Active” each time. Further, in assay [7], the Ki (commonly a dissociation constant, usually derived from enzyme kinetics or from competition with a known ligand) was “Not Active”.
In the case of `C[C@]12CCC(=O)C=C1CC[C@@H]1[C@@H]2CC[C@@]2(C)[C@H]1CC[C@]2(C)O` [METHYLTESTOSTERONE], the IC50 result in assay [1] (platelet), in assay [2], in assay [3], in assay [4], in assay [5] and in assay [6] (sf9) was “Not Active” in each case. For the same molecule, in assay [7], the IC50 entry is given as “Not Active”. For the same molecule, the inhibitory constant (Ki) result in assay [2] and in assay [3] was “Not Active” throughout.
As for `O=C1CC[C@@H](N2C(=O)c3ccccc3C2=O)C(=O)N1`, the IC50 result in assay [1] (platelet), in assay [2], in assay [3], in assay [4], in assay [5] and in assay [6] (sf9) was “Not Active” throughout. The IC50 result in assay [7] was “Not Active”. The Ki result in assay [2] and in assay [3] was “Not Active” in each case.
For `Cc1c(O)c(=O)ccn1C` [DEFERIPRONE], the IC50 entry in assay [1] (platelet), in assay [2], in assay [3], in assay [4], in assay [5] and in assay [6] (sf9) was “Not Active” throughout. Besides, in assay [7], the IC50 entry was “Not Active”. In addition, the Ki result in assay [2] and in assay [3] was “Not Active” in each case.
As for `CCOc1ccc(NC(C)=O)cc1` [PHENACETIN], the IC50 result in assay [1] (platelet), in assay [2], in assay [3], in assay [4], in assay [5] and in assay [6] (sf9) was “Not Active” throughout. Moreover, in assay [7], the IC50 entry is recorded as “Not Active”. For the same molecule, the Ki entry in assay [2] and in assay [3] was “Not Active” throughout.
Take `C[C@]12CC[C@@H]3c4ccc(O)cc4CC[C@H]3[C@@H]1CCC2=O` [ESTRONE]: the IC50 entry in assay [1] (platelet), in assay [2], in assay [3], in assay [4], in assay [5] and in assay [6] (sf9) was “Not Active” in each case. Also, the IC50 result in assay [7] is “Not Active”. Moreover, the Ki result in assay [2] and in assay [3] was “Not Active” in each case.
In the case of `NC1=NC(=O)C(c2ccccc2)O1` (stereo unspecified) [PEMOLINE], the IC50 result in assay [1] (platelet), in assay [2], in assay [3], in assay [4], in assay [5] and in assay [6] (sf9) was “Not Active” in each case. Further, in assay [7], the IC50 entry is reported as “Not Active”. Besides, the Ki entry in assay [2] and in assay [3] was “Not Active” throughout.
With `CN(C)c1nc(N(C)C)nc(N(C)C)n1` [ALTRETAMINE], the half-inhibitory concentration (IC50) result in assay [1] (platelet), in assay [2], in assay [3], in assay [4], in assay [5] and in assay [6] (sf9) was “Not Active” in each case. In assay [7], the IC50 result is “Not Active”. In addition, the Ki entry in assay [2] and in assay [3] was “Not Active” each time.
Consider `CCn1cc(C(=O)O)c(=O)c2cc(F)c(N3CCNCC3)cc21` [NORFLOXACIN], for which the IC50 result in assay [1] (platelet), in assay [2], in assay [3], in assay [4], in assay [5] and in assay [6] (sf9) was “Not Active” each time. In assay [7], the IC50 entry is listed as “Not Active”. For the same molecule, the Ki result in assay [2] and in assay [3] was “Not Active” in each case.
Regarding `C=C(C)C1(O)OC(=O)C=C1OC` (stereo unspecified) [PENICILLIC ACID], the IC50 result in assay [1] (platelet), in assay [2], in assay [3], in assay [4], in assay [5] and in assay [6] (sf9) was “Not Active” each time. For the same molecule, the IC50 entry in assay [7] is “Not Active”. In addition, the Ki entry in assay [2] and in assay [3] was “Not Active” throughout.
Regarding `C[C@H](CS)C(=O)N1CCC[C@H]1C(=O)O` [CAPTOPRIL], the IC50 entry in assay [1] (platelet), in assay [2], in assay [3], in assay [4], in assay [5] and in assay [6] (sf9) was “Not Active” each time. Besides, the concentration for half-maximal inhibition (IC50) result in assay [7] is “Not Active”. For the same molecule, the Ki entry in assay [2] and in assay [3] was “Not Active” throughout.
As for `C[C@H]1O[C@@H](O[C@H]2[C@@H](O)C[C@H](O[C@H]3[C@@H](O)C[C@H](O[C@H]4CC[C@@]5(C)[C@H](CC[C@@H]6[C@@H]5C[C@@H](O)[C@]5(C)[C@@H](C7=CC(=O)OC7)CC[C@]65O)C4)O[C@@H]3C)O[C@@H]2C)C[C@H](O)[C@@H]1O` [DIGOXIN], the IC50 result in assay [1] (platelet), in assay [2], in assay [3], in assay [4], in assay [5] and in assay [6] (sf9) was “Not Active” in each case. In assay [7], the IC50 entry was “Not Active”. Also, the Ki result in assay [2] and in assay [3] was “Not Active” in each case.
As for `CN(C)C(=O)Oc1cc(OC(=O)N(C)C)cc(C(O)CNC(C)(C)C)c1` (stereo unspecified) [BAMBUTEROL], the 50% inhibitory concentration (IC50) result in assay [1] (platelet), in assay [2], in assay [3], in assay [4], in assay [5] and in assay [6] (sf9) was “Not Active” in each case. In assay [7], the IC50 result is “Not Active”. The inhibition constant Ki result in assay [2] and in assay [3] was “Not Active” throughout.
For `CC(C)[C@H]1C(=O)N2CCC[C@H]2[C@]2(O)O[C@](NC(=O)[C@@H]3C=C4c5cccc6[nH]cc(c56)C[C@H]4N(C)C3)(C(C)C)C(=O)N12` [ERGOCORNINE], the 50% inhibitory concentration (IC50) is 1990 nM in assay [1] (read-out: IC50); “Not Active” in assay [2]; “Not Active” in assay [3]; “Not Active” in assay [4]; “Not Active” in assay [5]; 6.3 nM in assay [6] (read-out: IC50). In assay [7] (read-out: IC50), the IC50 came out at 5.19 nM. In addition, the inhibition constant (Ki) entry in assay [2] is “Not Active”; in assay [3], “Not Active”; in assay [6] (read-out: Ki), 2.36 nM; in assay [7] (read-out: Ki), 2.87 nM.
